{"source": "patent EP3064205A1", "about": "“Therapeutic use of isomeric forms of 2-(4-chlorophenyl)quinolin-4-yl)(piperidin-2-yl)methanol” (Glionova AB, priority 2015, dated 2016)", "assay_in_all_cases": "3D clonogenic assay (PDX)", "format_in_all_cases": "cell-based, human", "key": {"CXF 1297": {"test_system": "CXF 1297", "settings": "CXF 1297, Colorectal; for IC50: Homo sapiens", "in_short": "(§1)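 Colony counts from automated image analysis of INT-stained soft-agar cultures served as the read-out. Cells were dissociated from subcutaneous PDX tumors and layered in agar. Compound was applied 24 h later at 10 concentrations (top 50 µM) and left on the cells for 8–13 days.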"}, "CXF 243": {"test_system": "CXF 243", "settings": "CXF 243, Colorectal; for IC50: Homo sapiens", "in_short": "as §1"}, "GXF 251": {"test_system": "GXF 251", "settings": "GXF 251, Gastric; for IC50: Homo sapiens", "in_short": "as §1"}, "LXFE 397": {"test_system": "LXFE 397", "settings": "LXFE 397, Lung Epidermoid; for IC50: Homo sapiens", "in_short": "as §1"}, "LXFL 1121": {"test_system": "LXFL 1121", "settings": "LXFL 1121, Lung Large Cell; for IC50: Homo sapiens", "in_short": "as §1"}, "MAXF 1322": {"test_system": "MAXF 1322", "settings": "MAXF 1322, Breast; for IC50: Homo sapiens", "in_short": "as §1"}, "PAXF 1900": {"test_system": "PAXF 1900", "settings": "PAXF 1900, Pancreas; for IC50: Homo sapiens", "in_short": "as §1"}, "PAXF 1998": {"test_system": "PAXF 1998", "settings": "PAXF 1998, Pancreas; for IC50: Homo sapiens", "in_short": "as §1"}, "PAXF 2033": {"test_system": "PAXF 2033", "settings": "PAXF 2033, Pancreas; for IC50: Homo sapiens", "in_short": "as §1"}, "PAXF 2046": {"test_system": "PAXF 2046", "settings": "PAXF 2046, Pancreas; for IC50: Homo sapiens", "in_short": "as §1"}, "PAXF 546": {"test_system": "PAXF 546", "settings": "PAXF 546, Pancreas; for IC50: Homo sapiens, PAXF546", "in_short": "as §1"}, "RXF 1114": {"test_system": "RXF 1114", "settings": "RXF 1114, Renal; for IC50: Homo sapiens", "in_short": "as §1"}}, "note": "Where two headings read alike, the source gives them in different places.", "data": [{"smiles": "O[C@H](c1cc(-c2ccc(Cl)cc2)nc2ccccc12)[C@@H]1CCCCN1", "note": "[S1, (R)-(2-(4-chlorophenyl)quinolin-4-yl)((S)-piperidin-2-yl)methanol]", "values": [{"measurement": "b (bottom plateau of concentration-effect curve)", "setting": "CXF 1297", "value": 15}, {"measurement": "t (top plateau of concentration-effect curve)", "setting": "CXF 1297", "value": 90}, {"measurement": "IC50", "setting": "CXF 1297; read-out: abs. IC50", "value": 6.42, "unit": "µM"}, {"measurement": "IC50", "setting": "CXF 1297; read-out: rel. IC50", "value": 6.37, "unit": "µM"}, {"measurement": "b (bottom plateau of concentration-effect curve)", "setting": "CXF 243", "value": 46}, {"measurement": "t (top plateau of concentration-effect curve)", "setting": "CXF 243", "value": 102}, {"measurement": "IC50", "setting": "CXF 243; read-out: abs. IC50", "value": 9.22, "unit": "µM"}, {"measurement": "IC50", "setting": "CXF 243; read-out: rel. IC50", "value": 8.63, "unit": "µM"}, {"measurement": "b (bottom plateau of concentration-effect curve)", "setting": "GXF 251", "value": 34}, {"measurement": "t (top plateau of concentration-effect curve)", "setting": "GXF 251", "value": 111}, {"measurement": "IC50", "setting": "GXF 251; read-out: abs. IC50", "value": 6.02, "unit": "µM"}, {"measurement": "IC50", "setting": "GXF 251; read-out: rel. IC50", "value": 5.26, "unit": "µM"}, {"measurement": "IC50", "setting": "LXFE 397; read-out: abs. IC50", "value": 5.14, "unit": "µM"}, {"measurement": "IC50", "setting": "LXFE 397; read-out: rel. IC50", "value": 4.77, "unit": "µM"}, {"measurement": "b (bottom plateau of concentration-effect curve)", "setting": "LXFE 397", "value": 35}, {"measurement": "t (top plateau of concentration-effect curve)", "setting": "LXFE 397", "value": 100}, {"measurement": "IC50", "setting": "LXFL 1121; read-out: abs. IC50", "value": 8.66, "unit": "µM"}, {"measurement": "IC50", "setting": "LXFL 1121; read-out: rel. IC50", "value": 8.61, "unit": "µM"}, {"measurement": "b (bottom plateau of concentration-effect curve)", "setting": "LXFL 1121", "value": 9}, {"measurement": "t (top plateau of concentration-effect curve)", "setting": "LXFL 1121", "value": 101}, {"measurement": "IC50", "setting": "MAXF 1322; read-out: abs. IC50", "value": 4.77, "unit": "µM"}, {"measurement": "IC50", "setting": "MAXF 1322; read-out: rel. IC50", "value": 3.82, "unit": "µM"}, {"measurement": "b (bottom plateau of concentration-effect curve)", "setting": "MAXF 1322", "value": 21}, {"measurement": "t (top plateau of concentration-effect curve)", "setting": "MAXF 1322", "value": 93}, {"measurement": "IC50", "setting": "PAXF 1900; read-out: abs. IC50", "value": 13.2, "unit": "µM"}, {"measurement": "IC50", "setting": "PAXF 1900; read-out: rel. IC50", "value": 12.2, "unit": "µM"}, {"measurement": "b (bottom plateau of concentration-effect curve)", "setting": "PAXF 1900", "value": 33}, {"measurement": "t (top plateau of concentration-effect curve)", "setting": "PAXF 1900", "value": 114}, {"measurement": "IC50", "setting": "PAXF 1998; read-out: abs. IC50", "value": 8.89, "unit": "µM"}, {"measurement": "IC50", "setting": "PAXF 1998; read-out: rel. IC50", "value": 8.54, "unit": "µM"}, {"measurement": "b (bottom plateau of concentration-effect curve)", "setting": "PAXF 1998", "value": 38}, {"measurement": "t (top plateau of concentration-effect curve)", "setting": "PAXF 1998", "value": 104}, {"measurement": "IC50", "setting": "PAXF 2033; read-out: abs. IC50", "value": 9.19, "unit": "µM"}, {"measurement": "IC50", "setting": "PAXF 2033; read-out: rel. IC50", "value": 8.89, "unit": "µM"}, {"measurement": "b (bottom plateau of concentration-effect curve)", "setting": "PAXF 2033", "value": 27}, {"measurement": "t (top plateau of concentration-effect curve)", "setting": "PAXF 2033", "value": 110}, {"measurement": "IC50", "setting": "PAXF 2046; read-out: abs. IC50", "value": 18.6, "unit": "µM"}, {"measurement": "IC50", "setting": "PAXF 2046; read-out: rel. IC50", "value": 9.45, "unit": "µM"}, {"measurement": "b (bottom plateau of concentration-effect curve)", "setting": "PAXF 2046", "value": 38}, {"measurement": "t (top plateau of concentration-effect curve)", "setting": "PAXF 2046", "value": 100}, {"measurement": "IC50", "setting": "PAXF 546; read-out: abs. IC50", "value": 9.22, "unit": "µM"}, {"measurement": "IC50", "setting": "PAXF 546; read-out: rel. IC50", "value": 9.07, "unit": "µM"}, {"measurement": "b (bottom plateau of concentration-effect curve)", "setting": "PAXF 546", "value": 25}, {"measurement": "t (top plateau of concentration-effect curve)", "setting": "PAXF 546", "value": 96}, {"measurement": "IC50", "setting": "RXF 1114; read-out: abs. IC50", "value": 8.18, "unit": "µM"}, {"measurement": "IC50", "setting": "RXF 1114; read-out: rel. IC50", "value": 7.98, "unit": "µM"}, {"measurement": "b (bottom plateau of concentration-effect curve)", "setting": "RXF 1114", "value": 30}, {"measurement": "t (top plateau of concentration-effect curve)", "setting": "RXF 1114", "value": 94}]}]}
